Experimental data published in PubChem BioAssay AID1996.
≈ marks a conversion by molar mass, not a printed value.

conditions: buffer; pH 7.4; 200.0 µM

SMILES	solubility kinetic
Cc1ccc(C(=O)Nc2ccc(NC(=O)c3ccco3)c(C)c2)cc1	2.8 µg/mL (≈ 8.37 µM)
CNC(=O)Nc1ccc(C(O)(C(=O)OC)C(F)(F)F)cc1 (stereo unspecified)	> 45.9 µg/mL
CC(=O)C(Cc1ccc(Cl)nc1)Cc1ccc(Cl)nc1	44.9 µg/mL (≈ 145 µM)
CC(NC(=O)C(C)N1C(=O)c2ccccc2C1=O)c1ccccc1 (stereo unspecified)	> 48.4 µg/mL
CCOc1ccccc1C(=O)Nc1c[nH]c(=O)[nH]c1=O	2.4 µg/mL (≈ 8.72 µM)
Cc1ccc(C2=NN(CC(=O)NCc3cccs3)C(=O)CC2)cc1	> 51.2 µg/mL
Br.C=CCn1c(C)csc1=Nc1ccccc1C	10.9 µg/mL
CCOc1ccccc1OCCC(=O)Nc1ccc2c(c1)OCO2	> 49.4 µg/mL
CCOC(=O)c1c(C)[nH]c(C(=O)COc2ccc3ccc(=O)oc3c2)c1C	9.2 µg/mL (≈ 24.9 µM)
O=C(CNC(=O)c1ccc(F)cc1)NCc1ccccn1	> 43.1 µg/mL
CC(C)CCC(C)NC(=O)c1ccc2nccnc2c1 (stereo unspecified)	34.6 µg/mL (≈ 128 µM)
CCCC1(c2ccccc2)NC(=O)NC1=O (stereo unspecified)	> 32.7 µg/mL
COc1cc(NC(=O)c2ccc(Cl)cc2)c2ncccc2c1	< 0.3 µg/mL
c1cncc(-c2noc(-c3ccc4ccccc4c3)n2)c1	< 0.2 µg/mL
Cn1cccc1C(=O)OCC(=O)NC(=O)c1ccc(Cl)cc1	5.4 µg/mL (≈ 16.8 µM)
c1ccc(N2CCN(Cc3ccc4c(c3)OCO4)CC2)nc1	32.1 µg/mL (≈ 108 µM)
O=C(CC1Sc2ccccc2NC1=O)NCc1ccccc1 (stereo unspecified)	0.4 µg/mL (≈ 1.28 µM)
O=C(CCC(=O)c1ccccc1)NCc1ccccc1	> 40.1 µg/mL
Cc1ccccc1NC(=S)NCc1ccc(F)cc1	> 41.2 µg/mL
CC(C)(CN1CCOCC1)NS(=O)(=O)c1ccccc1	38 µg/mL (≈ 127 µM)
Cc1ccc2c(c1)N(Cc1cccc(F)c1)C(=O)C(C)O2 (stereo unspecified)	12.7 µg/mL (≈ 44.5 µM)

SMILES	solubility kinetic
O=C(COC(=O)c1cc(S(=O)(=O)N2CCOCC2)ccc1F)NCc1ccc2c(c1)OCO2	> 72.1 µg/mL
CCOC(=O)C1CCN(C(=O)c2ccc(C)o2)CC1	> 39.8 µg/mL
Cc1cc(C(=O)NC2Cc3ccccc3C2)c(C)o1	> 38.3 µg/mL
O=C(CSc1nnc(-c2ccncc2)o1)Nc1cc(Cl)ccc1C(=O)O	> 58.6 µg/mL
Cn1cccc1C(=O)OCC(=O)NCc1cccs1	> 41.7 µg/mL
COc1ccc(C)cc1NC(=O)C(=O)N1CCCC1	39.1 µg/mL (≈ 149 µM)
COc1ccc(S(=O)(=O)NCCCc2ccccc2)cc1	40.8 µg/mL (≈ 134 µM)
O=C1CCCN1Cc1ccccc1	> 26.3 µg/mL
COC(=O)C1C(O)=C(C=Nc2ccccc2)C(=O)CC1(C)C (stereo unspecified)	> 45.2 µg/mL
COc1ccccc1C(=O)N1CCC(N2CCN(c3ccccc3)CC2)CC1	41.5 µg/mL (≈ 109 µM)
CC(C)(C)NC(=O)/C=C/c1cccs1	> 31.4 µg/mL
Cc1onc(-c2c(Cl)cccc2Cl)c1C(=O)c1ccc(F)cc1	< 0.7 µg/mL
O=C(Nc1cc(Cl)ccc1Cl)C1Cc2ccccc2O/C1=N\O (stereo unspecified)	2.8 µg/mL (≈ 7.97 µM)
CCc1ccc(NC(=S)NCc2ccccc2)cc1	27.4 µg/mL (≈ 101 µM)
[Br-].c1ccc(-c2c[n+]3c(n2-c2ccccc2)SCC3)cc1	> 53.9 µg/mL
CCc1noc(C)c1C(=O)OC(C)C(=O)Nc1ccc2c(c1)OCO2 (stereo unspecified)	14.4 µg/mL (≈ 41.6 µM)
CCCN(C(=O)CCc1ccc(OC)cc1)c1c(N)n(Cc2ccccc2)c(=O)[nH]c1=O	8.9 µg/mL (≈ 20.4 µM)
NS(=O)(=O)c1ccc(NC(=O)c2ccc3c(c2)OCO3)cc1	< 0.3 µg/mL
Cc1ccc(NS(=O)(=O)c2cccc(C(=O)Nc3cccnc3)c2)c(C)c1	6 µg/mL (≈ 15.7 µM)
COc1cccc2[nH]c(C(=O)NC(C)c3ccccc3)cc12 (stereo unspecified)	> 44.2 µg/mL
CCOC(=O)c1c(C)nsc1NCc1ccccc1	8.5 µg/mL (≈ 30.8 µM)

SMILES	solubility kinetic
O=c1c2ccccc2[nH]c(=S)n1-c1cccnc1	7.6 µg/mL (≈ 29.8 µM)
CC(C)(C)c1cc(NC(=O)Nc2ccc(Cl)cc2Cl)no1	< 0.2 µg/mL
CCN(CC)CCCNc1oc(/C=C/c2ccccc2)nc1C#N	> 48.7 µg/mL
Cc1nc(N)c(CC(Br)CBr)c(Cl)n1 (stereo unspecified)	49.1 µg/mL (≈ 143 µM)
COc1cc(Cl)c(C)cc1NC(=O)CCN1C(=O)NC(C)(C)C1=O	> 53.1 µg/mL
O=C1/C(=C/c2ccccn2)SC(=S)N1c1cccc(O)c1	0.4 µg/mL (≈ 1.27 µM)
Cc1ccc2c(c1)N(CC(=O)N1CCCC1)C(=O)C(C)O2 (stereo unspecified)	> 43.3 µg/mL
Cc1ccc(S(=O)(=O)N2CCC[C@H]2C(=O)Nc2ccc(F)cc2C)cc1	> 56.5 µg/mL
O=C(CN1C(=O)NC2(CCCC2)C1=O)Nc1ccc(F)c(Cl)c1	> 51 µg/mL
CC(C)CC(=O)N/N=C/c1c(N)n(C)c(=O)n(C)c1=O	> 42.2 µg/mL
COc1ccc(NC(=O)NCc2ccc(Cl)cc2)cc1	0.3 µg/mL (≈ 1.03 µM)
COc1cccc(C(N)=O)c1OC(=O)Cc1ccccc1F	> 45.5 µg/mL
Brc1ccc(-c2csc(N3CCOCC3)n2)cc1	< 0.3 µg/mL
Nc1ccc(C(=O)OCC(=O)Nc2cccc(S(=O)(=O)NC3=NCCCCC3)c2)cc1[N+](=O)[O-]	4.7 µg/mL (≈ 9.6 µM)
Fc1ccc(-n2cc(-c3ccccc3)c3c(=S)nc[nH]c32)cc1	< 0.2 µg/mL
CC(C)c1ccc(CN2C(=O)NC3(CCCCCC3)C2=O)cc1	< 0.3 µg/mL
COc1ccc(NC(=O)COc2ccc(Br)cc2)c(OC)c1	< 0.8 µg/mL
Cc1ccccc1OCC(=O)Nc1ccc(N2CCN(C)CC2)c(Cl)c1	12.3 µg/mL (≈ 32.9 µM)
Cc1ccccc1NCN1C(=O)C2CCC(C)(C1=O)C2(C)C (stereo unspecified)	30.6 µg/mL (≈ 102 µM)
